Experimental data reported in the kinase profiling compilation of Christmann-Franck et al. (2016).

What was measured:
Assay in all cases: KINOMEscan competition binding
Conditions in all cases: compound 10.0 µM
DDR2 (human) = DDR2 (human) (UniProt Q16832)
BLK (human) = BLK (human) (UniProt P51451)
CSNK1G1 (human) = CSNK1G1 (human) (UniProt Q9HCP0)
MAPK10 (human) = MAPK10 (human) (UniProt P53779)
SIK1 (human) = SIK1 (human) (UniProt P57059)
TNIK (human) = TNIK (human) (UniProt Q9UKE5)
MAP4K1 (human) = MAP4K1 (human) (UniProt Q92918)
Chain of MAP4K1 (human) (Q92918 whole entry, looked up): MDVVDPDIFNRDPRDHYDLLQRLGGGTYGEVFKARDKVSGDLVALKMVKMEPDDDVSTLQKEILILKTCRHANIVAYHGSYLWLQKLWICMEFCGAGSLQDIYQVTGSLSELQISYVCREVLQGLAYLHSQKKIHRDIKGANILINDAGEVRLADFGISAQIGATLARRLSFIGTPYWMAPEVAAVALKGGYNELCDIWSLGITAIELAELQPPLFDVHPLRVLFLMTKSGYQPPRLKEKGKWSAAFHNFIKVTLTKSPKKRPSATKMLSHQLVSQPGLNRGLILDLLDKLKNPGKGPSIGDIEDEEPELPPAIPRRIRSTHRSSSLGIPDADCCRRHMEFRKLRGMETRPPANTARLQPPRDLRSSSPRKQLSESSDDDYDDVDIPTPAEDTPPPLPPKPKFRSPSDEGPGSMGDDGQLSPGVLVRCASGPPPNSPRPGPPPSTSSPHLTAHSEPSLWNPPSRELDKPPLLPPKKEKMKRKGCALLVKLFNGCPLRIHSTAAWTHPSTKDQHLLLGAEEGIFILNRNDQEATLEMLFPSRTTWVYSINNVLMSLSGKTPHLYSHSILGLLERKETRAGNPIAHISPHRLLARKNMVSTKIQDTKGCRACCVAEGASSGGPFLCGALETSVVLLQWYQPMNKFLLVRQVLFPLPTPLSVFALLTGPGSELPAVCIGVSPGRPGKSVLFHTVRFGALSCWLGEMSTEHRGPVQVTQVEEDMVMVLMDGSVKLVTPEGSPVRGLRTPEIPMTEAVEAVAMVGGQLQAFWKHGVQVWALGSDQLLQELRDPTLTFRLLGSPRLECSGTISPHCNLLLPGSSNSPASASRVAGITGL

EPHB4 (human) = EPHB4 (human) (UniProt P54760)
AURKB (human) = AURKB (human) (UniProt Q96GD4)
Chain of AURKB (human) (Q96GD4 whole entry, looked up): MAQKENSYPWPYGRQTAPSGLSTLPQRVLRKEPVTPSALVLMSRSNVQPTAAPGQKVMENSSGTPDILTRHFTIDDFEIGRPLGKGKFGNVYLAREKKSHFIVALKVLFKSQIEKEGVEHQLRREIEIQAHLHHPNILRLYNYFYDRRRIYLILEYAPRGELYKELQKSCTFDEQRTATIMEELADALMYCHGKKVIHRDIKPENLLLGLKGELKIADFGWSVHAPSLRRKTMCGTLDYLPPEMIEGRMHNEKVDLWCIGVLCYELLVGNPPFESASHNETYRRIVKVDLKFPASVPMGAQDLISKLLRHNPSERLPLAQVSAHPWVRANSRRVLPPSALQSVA

CDK5 (human) = CDK5 (human) (UniProt Q00535)
MAPK9 (human) = MAPK9 (human) (UniProt P45984)
IGF1R (human) = IGF1R (human) (UniProt P08069)
Chain of IGF1R (human) (P08069 whole entry, looked up): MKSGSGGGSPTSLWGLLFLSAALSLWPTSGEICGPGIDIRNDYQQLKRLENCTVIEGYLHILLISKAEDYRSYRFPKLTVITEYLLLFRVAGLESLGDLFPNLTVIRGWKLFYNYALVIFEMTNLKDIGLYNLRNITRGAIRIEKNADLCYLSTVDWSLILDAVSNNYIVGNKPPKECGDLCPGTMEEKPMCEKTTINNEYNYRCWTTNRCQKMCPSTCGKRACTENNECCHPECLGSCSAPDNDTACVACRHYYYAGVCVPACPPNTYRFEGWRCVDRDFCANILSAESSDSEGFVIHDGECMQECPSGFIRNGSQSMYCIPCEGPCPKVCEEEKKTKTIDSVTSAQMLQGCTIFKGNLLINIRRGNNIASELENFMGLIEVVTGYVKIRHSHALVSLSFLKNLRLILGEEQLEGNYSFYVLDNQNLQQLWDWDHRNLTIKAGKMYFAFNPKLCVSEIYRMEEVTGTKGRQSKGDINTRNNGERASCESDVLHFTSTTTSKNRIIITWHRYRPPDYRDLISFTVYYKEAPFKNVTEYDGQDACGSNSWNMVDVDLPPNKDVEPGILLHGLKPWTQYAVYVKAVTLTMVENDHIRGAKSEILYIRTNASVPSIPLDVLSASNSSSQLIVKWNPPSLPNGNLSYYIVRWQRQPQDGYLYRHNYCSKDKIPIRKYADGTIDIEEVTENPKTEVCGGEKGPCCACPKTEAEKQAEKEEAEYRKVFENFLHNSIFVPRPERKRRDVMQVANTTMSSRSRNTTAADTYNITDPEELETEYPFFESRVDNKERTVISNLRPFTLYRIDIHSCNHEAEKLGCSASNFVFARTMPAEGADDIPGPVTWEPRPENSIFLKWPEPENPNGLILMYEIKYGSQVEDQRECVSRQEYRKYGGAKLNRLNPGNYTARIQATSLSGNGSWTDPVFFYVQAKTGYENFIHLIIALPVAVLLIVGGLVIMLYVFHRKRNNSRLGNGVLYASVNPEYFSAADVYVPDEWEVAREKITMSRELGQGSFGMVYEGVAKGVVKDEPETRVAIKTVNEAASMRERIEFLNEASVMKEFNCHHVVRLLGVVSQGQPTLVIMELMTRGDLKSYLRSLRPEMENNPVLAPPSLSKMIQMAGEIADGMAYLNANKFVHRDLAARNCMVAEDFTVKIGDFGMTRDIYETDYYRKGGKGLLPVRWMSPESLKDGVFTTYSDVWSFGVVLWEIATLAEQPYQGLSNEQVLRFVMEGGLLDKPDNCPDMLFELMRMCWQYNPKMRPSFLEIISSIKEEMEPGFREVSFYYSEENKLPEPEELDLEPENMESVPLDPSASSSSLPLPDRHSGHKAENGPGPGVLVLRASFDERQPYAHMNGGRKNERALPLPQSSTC

MAPKAPK2 (human) = MAPKAPK2 (human) (UniProt P49137)
Chain of MAPKAPK2 (human) (P49137 whole entry, looked up): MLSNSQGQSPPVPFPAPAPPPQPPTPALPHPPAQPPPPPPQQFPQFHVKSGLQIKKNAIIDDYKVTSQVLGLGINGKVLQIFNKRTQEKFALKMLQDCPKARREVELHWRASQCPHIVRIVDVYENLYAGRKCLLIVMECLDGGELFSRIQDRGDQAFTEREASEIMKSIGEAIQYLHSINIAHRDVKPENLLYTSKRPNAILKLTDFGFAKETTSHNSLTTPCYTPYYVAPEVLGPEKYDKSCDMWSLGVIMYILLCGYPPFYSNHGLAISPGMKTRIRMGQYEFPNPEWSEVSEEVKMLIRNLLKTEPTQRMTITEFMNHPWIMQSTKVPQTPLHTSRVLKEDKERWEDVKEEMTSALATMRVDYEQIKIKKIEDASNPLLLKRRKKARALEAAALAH

TEK (human) = TEK (human) (UniProt Q02763)
CHEK1 (human) = CHEK1 (human) (UniProt O14757)
PRKG2 (human) = PRKG2 (human) (UniProt Q13237)
TAOK3 (human) = TAOK3 (human) (UniProt Q9H2K8)
STK38L (human) = STK38L (human) (UniProt Q9Y2H1)
Chain of STK38L (human) (Q9Y2H1 whole entry, looked up): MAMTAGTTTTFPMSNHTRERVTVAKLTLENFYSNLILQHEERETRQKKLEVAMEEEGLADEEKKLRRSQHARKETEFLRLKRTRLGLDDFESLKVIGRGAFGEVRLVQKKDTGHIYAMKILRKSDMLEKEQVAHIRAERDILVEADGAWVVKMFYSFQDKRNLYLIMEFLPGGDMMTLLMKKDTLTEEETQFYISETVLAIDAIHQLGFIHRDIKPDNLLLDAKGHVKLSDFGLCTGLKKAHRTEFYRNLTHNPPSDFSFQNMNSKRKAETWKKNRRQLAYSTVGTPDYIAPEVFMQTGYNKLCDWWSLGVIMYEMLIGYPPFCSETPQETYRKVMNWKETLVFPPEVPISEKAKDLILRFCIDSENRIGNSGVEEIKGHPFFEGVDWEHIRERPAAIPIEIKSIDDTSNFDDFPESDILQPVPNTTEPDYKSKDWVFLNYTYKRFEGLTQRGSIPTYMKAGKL

AURKA (human) = AURKA (human) (UniProt O14965)
Chain of AURKA (human) (O14965 whole entry, looked up): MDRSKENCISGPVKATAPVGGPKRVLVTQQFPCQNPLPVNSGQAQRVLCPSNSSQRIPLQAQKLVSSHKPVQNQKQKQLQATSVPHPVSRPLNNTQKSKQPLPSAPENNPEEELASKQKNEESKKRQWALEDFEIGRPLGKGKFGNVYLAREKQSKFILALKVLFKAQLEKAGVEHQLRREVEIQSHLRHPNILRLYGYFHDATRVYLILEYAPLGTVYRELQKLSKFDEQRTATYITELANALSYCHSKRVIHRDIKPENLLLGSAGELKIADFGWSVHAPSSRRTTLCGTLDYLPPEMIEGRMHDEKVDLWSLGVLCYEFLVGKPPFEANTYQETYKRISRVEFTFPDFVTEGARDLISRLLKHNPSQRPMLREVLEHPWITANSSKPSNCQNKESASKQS

LATS2 (human) = LATS2 (human) (UniProt Q9NRM7)
CSNK2A2 (human) = CSNK2A2 (human) (UniProt P19784)
LCK (human) = LCK (human) (UniProt P06239)
MAPK12 (human) = MAPK12 (human) (UniProt P53778)
MST4 (human) = MST4 (human) (UniProt Q9P289)
PIP5K1A (human) = PIP5K1A (human) (UniProt Q99755)
MYO3A (human) = MYO3A (human) (UniProt Q8NEV4)
NLK (human) = NLK (human) (UniProt Q9UBE8)
RAF1 (human) = RAF1 (human) (UniProt P04049)
Chain of RAF1 (human) (P04049 whole entry, looked up): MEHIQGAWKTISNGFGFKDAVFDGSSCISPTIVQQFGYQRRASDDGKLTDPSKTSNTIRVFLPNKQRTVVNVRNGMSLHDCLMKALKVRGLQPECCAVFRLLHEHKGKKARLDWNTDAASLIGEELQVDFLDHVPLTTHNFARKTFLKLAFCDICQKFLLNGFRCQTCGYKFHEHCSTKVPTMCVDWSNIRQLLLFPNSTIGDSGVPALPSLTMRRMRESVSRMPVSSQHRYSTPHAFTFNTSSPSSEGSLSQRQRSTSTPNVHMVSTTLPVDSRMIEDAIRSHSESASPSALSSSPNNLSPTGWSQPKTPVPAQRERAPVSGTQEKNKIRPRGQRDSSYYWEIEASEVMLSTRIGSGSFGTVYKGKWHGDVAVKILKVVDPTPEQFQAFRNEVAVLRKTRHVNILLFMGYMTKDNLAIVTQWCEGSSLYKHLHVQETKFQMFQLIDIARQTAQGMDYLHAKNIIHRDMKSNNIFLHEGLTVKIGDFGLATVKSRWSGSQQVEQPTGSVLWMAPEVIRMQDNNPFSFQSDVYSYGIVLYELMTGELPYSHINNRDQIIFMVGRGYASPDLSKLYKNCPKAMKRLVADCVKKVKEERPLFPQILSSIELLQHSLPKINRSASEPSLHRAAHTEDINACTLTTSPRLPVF

DAPK1 (human) = DAPK1 (human) (UniProt P53355)
INSRR (human) = INSRR (human) (UniProt P14616)
ULK3 (human) = ULK3 (human) (UniProt Q6PHR2)
BRSK2 (human) = BRSK2 (human) (UniProt Q8IWQ3)
STK3 (human) = STK3 (human) (UniProt Q13188)
SRC (human) = SRC (human) (UniProt P12931)
HUNK (human) = HUNK (human) (UniProt P57058)
DYRK2 (human) = DYRK2 (human) (UniProt Q92630)
YSK4 (human) = YSK4 (human) (UniProt Q56UN5)

Chain of BLK (human) (P51451 whole entry, looked up): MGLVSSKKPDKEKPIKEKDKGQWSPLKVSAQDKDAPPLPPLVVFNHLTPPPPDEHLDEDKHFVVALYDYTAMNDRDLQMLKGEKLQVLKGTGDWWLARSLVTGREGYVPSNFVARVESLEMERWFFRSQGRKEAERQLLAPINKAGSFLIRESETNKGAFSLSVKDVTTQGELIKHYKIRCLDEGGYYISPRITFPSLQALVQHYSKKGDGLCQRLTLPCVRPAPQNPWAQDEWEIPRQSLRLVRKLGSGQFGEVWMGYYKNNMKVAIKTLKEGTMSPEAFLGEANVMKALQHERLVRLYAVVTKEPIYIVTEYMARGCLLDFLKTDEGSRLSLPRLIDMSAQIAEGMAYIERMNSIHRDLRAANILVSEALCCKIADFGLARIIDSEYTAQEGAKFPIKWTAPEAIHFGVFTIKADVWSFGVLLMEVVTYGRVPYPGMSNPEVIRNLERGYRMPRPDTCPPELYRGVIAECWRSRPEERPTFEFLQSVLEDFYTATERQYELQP

Row | SMILES | kinase still bound, per cent of control (DDR2 (human)) | kinase still bound, per cent of control (BLK (human)) | kinase still bound, per cent of control (CSNK1G1 (human)) | kinase still bound, per cent of control (MAPK10 (human)) | kinase still bound, per cent of control (SIK1 (human)) | kinase still bound, per cent of control (TNIK (human)) | kinase still bound, per cent of control (MAP4K1 (human)) | kinase still bound, per cent of control (EPHB4 (human)) | kinase still bound, per cent of control (AURKB (human)) | kinase still bound, per cent of control (CDK5 (human)) | kinase still bound, per cent of control (MAPK9 (human)) | kinase still bound, per cent of control (IGF1R (human)) | kinase still bound, per cent of control (MAPKAPK2 (human)) | kinase still bound, per cent of control (TEK (human)) | kinase still bound, per cent of control (CHEK1 (human)) | kinase still bound, per cent of control (PRKG2 (human)) | kinase still bound, per cent of control (STK38L (human)) | kinase still bound, per cent of control (AURKA (human)) | kinase still bound, per cent of control (LATS2 (human)) | kinase still bound, per cent of control (CSNK2A2 (human)) | also measured
1 | COc1cc(C)c(Sc2cnc(NC(=O)c3ccc(CNC(C)C(C)C)cc3)s2)cc1C(=O)N1CCN(C(C)=O)CC1 (configuration not stated) | 100% | 100% | 100% | 100% | 100% | 100% | 25% | 100% | 100% | 100% | 100% | 4.1% | 100% | 29% | 100% | 100% | 7% | 100% | 100% | 100% | kinase still bound, per cent of control (TAOK3 (human)): 3.6%; kinase still bound, per cent of control (LCK (human)): 6.2%; kinase still bound, per cent of control (MAPK12 (human)): 100%; kinase still bound, per cent of control (MST4 (human)): 100%; kinase still bound, per cent of control (PIP5K1A (human)): 100%; kinase still bound, per cent of control (MYO3A (human)): 100%; kinase still bound, per cent of control (NLK (human)): 100%; kinase still bound, per cent of control (RAF1 (human)): 100%; kinase still bound, per cent of control (DAPK1 (human)): 100%; kinase still bound, per cent of control (INSRR (human)): 0.35%; kinase still bound, per cent of control (ULK3 (human)): 100%; kinase still bound, per cent of control (BRSK2 (human)): 100%; kinase still bound, per cent of control (STK3 (human)): 100%; kinase still bound, per cent of control (SRC (human)): 1.2%
2 | COc1ccc(N(C(=O)Oc2cc(C(=O)Nc3cccc(C(F)(F)F)c3)ccc2C)c2ccnc(Nc3ccc(N4CCN(C)CC4)cc3)n2)c(OC)c1 | 100% | 0.45% | 100% | 100% | 0.1% | 12% | 4.6% | 0.3% | 100% | 100% | 19% | 100% | 100% | 0.05% | 100% | 100% | 100% | 100% | 100% | 100% | kinase still bound, per cent of control (LCK (human)): 0.4%; kinase still bound, per cent of control (MAPK12 (human)): 100%; kinase still bound, per cent of control (MST4 (human)): 100%; kinase still bound, per cent of control (PIP5K1A (human)): 100%; kinase still bound, per cent of control (MYO3A (human)): 100%; kinase still bound, per cent of control (NLK (human)): 30%; kinase still bound, per cent of control (RAF1 (human)): 23%; kinase still bound, per cent of control (DAPK1 (human)): 100%; kinase still bound, per cent of control (INSRR (human)): 100%; kinase still bound, per cent of control (BRSK2 (human)): 100%; kinase still bound, per cent of control (STK3 (human)): 100%; kinase still bound, per cent of control (SRC (human)): 0.15%
3 | COc1cc(N2CCC(C(N)=O)CC2)ccc1Nc1nc(N)c(Cl)c(Nc2ccccc2S(=O)(=O)C(C)C)n1 | 100% | 22% | 100% | 28% | 100% | 100% | 100% | 100% | 100% | 100% | 100% | 0.65% | 100% | 100% | 100% | 100% | 100% | 100% | 100% | 100% | kinase still bound, per cent of control (TAOK3 (human)): 100%; kinase still bound, per cent of control (LCK (human)): 14%; kinase still bound, per cent of control (MAPK12 (human)): 100%; kinase still bound, per cent of control (MST4 (human)): 100%; kinase still bound, per cent of control (PIP5K1A (human)): 100%; kinase still bound, per cent of control (MYO3A (human)): 15%; kinase still bound, per cent of control (NLK (human)): 100%; kinase still bound, per cent of control (RAF1 (human)): 100%; kinase still bound, per cent of control (DAPK1 (human)): 100%; kinase still bound, per cent of control (INSRR (human)): 1.2%; kinase still bound, per cent of control (ULK3 (human)): 100%; kinase still bound, per cent of control (BRSK2 (human)): 100%; kinase still bound, per cent of control (STK3 (human)): 100%; kinase still bound, per cent of control (SRC (human)): 23%
4 | Cc1cn(-c2cc(C(=O)Nc3ccc(C)c(NC(=O)c4ccno4)c3)cc(C(F)(F)F)c2)cn1 | 15% | 15% | 100% | 100% | 100% | 100% | 100% | 15% | 100% | 100% | 100% | 100% | 100% | 100% | 100% | 100% | 100% | 100% | 100% | 100% | kinase still bound, per cent of control (HUNK (human)): 100%; kinase still bound, per cent of control (DYRK2 (human)): 100%; kinase still bound, per cent of control (TAOK3 (human)): 100%; kinase still bound, per cent of control (LCK (human)): 4%; kinase still bound, per cent of control (MAPK12 (human)): 100%; kinase still bound, per cent of control (MST4 (human)): 100%; kinase still bound, per cent of control (YSK4 (human)): 100%; kinase still bound, per cent of control (PIP5K1A (human)): 100%; kinase still bound, per cent of control (MYO3A (human)): 100%; kinase still bound, per cent of control (NLK (human)): 100%; kinase still bound, per cent of control (RAF1 (human)): 6%; kinase still bound, per cent of control (DAPK1 (human)): 100%; kinase still bound, per cent of control (INSRR (human)): 100%; kinase still bound, per cent of control (ULK3 (human)): 100%; kinase still bound, per cent of control (BRSK2 (human)): 100%; kinase still bound, per cent of control (STK3 (human)): 100%; kinase still bound, per cent of control (SRC (human)): 2.4%
